Here are results for four molecules from patent publication US6566047B1, “Method for identifying neurite-growth promoting agents” (The Regents of the University of Colorado, priority 1998, dated 2003).

One data set concerns cPLA2. As to the kind of experiment: PLA2 activity (14C-AA release) in MAT-Lu cells. Type of data set: biochemical, rat. As to conditions: 5 mM dithiothreitol.
A further data set has as its system growth cone PLA2. Briefly: PLA2 assay in growth cone particles (GCPs). Type of data set: biochemical, rat. As for the experimental part:
Growth Cone Particle (GCP) Isolation. GCPs were prepared as described by Pfenninger et al. (1983) and modified by Lohse et al., Dev. Brain Res., 96:38-96 (1996). Briefly, 18-day fetal brains were homogenized in approximately 8 volumes of 0.32 M sucrose containing 1 mM MgCl2, 2 mM TES buffer, pH 7.3, and 3 μM aprotinin. A low-speed supernatant (1,660 g×15 min) was loaded onto a discontinuous sucrose density gradient With steps of 0.83 M and 2.66 M sucrose containing MgCl2 and TES. The gradients were spun to equilibrium at 242,000 g for 40 min in a vertical rotor (Vti50, Beckman). The GCP fraction at the 0.32/0.83 M sucrose interface was collected and used for the experiments described below.
(§1) All assays were run in triplicate.

A further data set deals with protein kinase C (PKC). Briefly: MARCKS phosphorylation by PKC in isolated GCPs. The format is biochemical, rat. As to conditions: 30 sec @ 30° C.; 10^−6M or less free Ca^2+. The text has this:
FIG. 7A. Thrombin stimulates MARCKS phosphorylation in a 12-LOX-dependent manner. FIG. 7B. 12(S)-HETE stimulates MARCKS phosphorylation by PKC in isolated GCPs. […] Polypeptides were resolved by SDS-PAGE. MARCKS phosphorylation was quantified by phosphorimaging.

For data set [1], the system named is growth cones in cultures of rat cerebral cortex. As to the kind of experiment: Growth cone collapse assay in cortical neuron culture. Type of data set: cell-based. The note with it: thrombin 100 nM; TRAP (100 mM); 12(S)-HETE 10^−7 M. As for the experimental part: Neuron Culture. Cerebral cortices were dissected from embryonic day 18 Sprague-Dawley rats, cut into explants of less than 1 mm^3 and cultured on either poly-D-lysine-coated coverglass (Assistent) or poly-D-lvsine-coated tissue culture plastic. After 24 hours in B27 neurobasal medium (NB) supplemented with 10% fetal bovine serum, cultures were switched to serum-free B27/NB. The cultures were incubated at 37° C. in 5% CO2 in air. Sprouting neurons were observed readily on day 1. On day 2 or 3, long neurites were present, and the cultures were used for collapse experiments.
Actin Staining. After experimentation, cultures were fixed by slow infusion of fixative (4% paraformaldehyde in 0.1 M phosphate buffer, pH 7.4) into the culture dishes over 10 min (Pfenninger and Maylié-Pfenninger, J. Cell Biol. 89:53-546 (1981)). Thereafter, the fixative was removed by rinsing three times with phosphate-buffered saline (PBS) containing 1 mM glycine. Cultures were then blocked with PBS/1% bovine serum albumin (BSA) and permeabilized by incubation in 0.02% Triton X-100 for 5 min. After three washes in PBS/BSA, cultures were incubated with Texas-Red-conjugated phalloidin for 30 min. Unbound phalloidin was washed away by two PBS rinses, after which the coverglasses were mounted in Slow-Fade Light on microscope slides. Images were recorded on 35 mm film using a Zeiss Axiophot fluorescence microscope equipped with epiillumination.
Growth Cone Collapse Assay. Prior to repellent factor treatment, some of the day 2-3 explant cultures were pre-incubated (at 37° C.) with inhibitor or vehicle control (dimethylsulfoxide or ethanol) for 30-60 min. Cultures were then challenged with a repellent factor or vehicle control for 1-30 min. In some experiments, live cultures were photographed with a Zeiss IM 35 inverted photo microscope equipped with a stage heater, while in others cultures were fixed (as above) after 7 minutes of repellent factor treatment. Growth cone collapse was assessed quantitatively in aldehyde-fixed cultures by grading the degree of collapse in a large number of randomly selected growth cones.

The next data set concerns AT-2 cells. As to the kind of experiment: Pseudopod length / retraction assay, AT-2 cells. The format is cell-based, rat. As to conditions: for pseudopod retraction response of AT-2 cells: AA even at 10^−1M. As to the method:
(§2) Pseudopod Morphometry. To study the effects of various agents on pseudopods on a short-term basis, we measured pseudopod lengths. Cells plated in 35-mm diameter dishes at low density (1×10^4 per dish) were incubated overnight, tie medium was changed, and the experiments were run four hours later. First, cultures were shifted to serum-free medium, which was replaced one hour later by serum-free medium with or without the various agents (thrombin, AA or HETEs). Care was taken to avoid heat and light inactivation of the eicosanoids. Culture dishes were placed on a Zeiss inverted microscope equipped with a heated stage and viewed with a 16×phase contrast objective lens. Randomly selected fields of the cultures, containing generally about 20 cells each, were recorded, digitized and stored in the computer at the onset of the experiment and at different times thereafter.
(§3) In some cases, individual cells were monitored over different periods of time immediately after introduction of the reagent, either by mixing it into the medium or by applying it locally to one end of the cell. Local application was done with a “puffer” system that expels microliter amounts of the desired solution from a micromanipulator-controlled micropipette tip. Cell morphology was recorded, and the captured images were analyzed with a Power Macintosh computer using NIH Image. Cell process length was measured from the center of the nucleus to the end of the process. Characterization of the frequencies of pseudopod lengths, at a fixed time for each of a sequence of concentrations of reagent, utilized a gamma regression model with an inverse quadratic linear predictor (McCullagh and Nelder, Generalized Linear Models 2d ed., pp. 291-292 (Chapman & Hall, 1989), separately fit to each concentration data set. Although no formal goodness-of-fit tests were carried out, in virtually every case there was good visual representation of the pattern of response (see FIG. 14). Most data, however, are shown as whisker-box plots, where the center point represents the 50%, the ends of the box the […] and 75%, and the “whiskers” the 5% and 95% quantiles (e.g., FIG. 11). Statistical comparisons of pseudopod lengths for different treatments were done by standard non-parametric techniques (Wilcoxon Rank Sum or Kruskal-Wallis Tests), as judged appropriate. Polynomial curve fittings were done by standard least-squares techniques. Statistical analyses and graphing were done with the use of SAS procedures: Reg, Phreg, Nparlway and Plot (SAS institute Inc., Cary, N.C.).

The next data set addresses 12(S)-HETE receptor. The note with it: Liu et al. 1995; Herbertsson and Hammarstrom 1992; cited from earlier work.
For data set [2], the system named is MAT-Lu cells. Briefly: Pseudopod morphometry (pseudopod length assay), MAT-Lu cells. Type of data set: cell-based, rat. As for the experimental part: as §2, §3
For data set [3], the system named is high motility (MAT-Lu, MAT-LyLu and AT-3) Dunning carcinoma cells. As to the kind of experiment: Pseudopod length assay, high-motility Dunning carcinoma cells. Type of data set: cell-based, rat. As to the method:
as §2
In some cases, individual cells were monitored over different periods of time immediately after introduction of the reagent, either by mixing it into the medium or by applying it locally to one end of the cell. […] Cell morphology was recorded, and the captured images were analyzed with a Power Macintosh computer using NIH Image. Cell process length was measured from the center of the nucleus to the end of the process. […]

The target of a further data set is PKC γ (Rattus norvegicus, UniProt P63319). The note with it: Naor et al. 1988; cited from earlier work.
Data set [4] relates to MAT-Lu cells. Briefly: Boyden chamber motility assay, MAT-Lu cells. The format is cell-based, rat. As for the experimental part: Boyden Chamber Motility Assays. Disposable transwells (Coming Costar, Cambridge, Mass.) of 6.5 mm diameter and 8 μm pore size were coated with 5 μg/ml laminin on both sides. The membranes were washed twice with Hank's balanced salt solution (HBSS) and then pre-incubated with growth medium containing 10% fetal bovine serum. Trypsinized cells (5×10^4) were plated into the upper well. After 1 hour the upper chamber was washed twice with HBSS, filled with serum-free medium and moved to a new lower chamber, also filled with serum-free medium, with or without thrombin and/or 0.75 nM insulin-like growth factor-1 (IGF-1). After incubation for 4 hrs, cells on the membrane were fixed and stained with a Diff-Quick kit (Baxter Scientific Products). Cells on the upper side were scraped off, the membranes were removed, mounted onto microscope slides and analyzed. Each filter was scanned twice at right angles under the light microscope with a 16×phase contrast objective lens. A continuous series of 20 frames for each filter was digitized using a high-resolution CCD camera (Kodak) and stored in a Power Macintosh computer. The two most peripheral pairs of frames from each scan were deleted so that 12 frames were analyzed for each filter. Cells that had crossed the membrane were counted and tabulated. The sum of the cells counted in the twelve frames was an individual data point.

The test system of the next data set is growth cone PLC. Briefly: Phospholipase C assay (DG release) in GCPs. Type of data set: biochemical, rat. The note with it: IGF-1, low nanomolar range; 10 μM free Ca^2+.
Description: as §1

“Also recorded” adds a separate entry of the source.

Description for cPLA2: MAT-Lu cells were plated at a density of 0.5×10^6 cells per flask (T-75) and grown as detailed above to approximately 25% confluency. On the day before the experiments, the serum level in the medium was dropped to 1%. Cells were fed with fresh 1% serum-medium 4 hrs prior to harvest. For harvesting, cells were rinsed with Ca^++,Mg^++-free HBSS, covered with 2 ml cold Ca^++-free modified Krebs buffer (220 mM sucrose, 50 mM NaCl, 5 mM KCl, 22 mM HEPES, 10 mM glucose. 1.2 mM NaH2PO4 and 1.2 mM MgCl2, pH 7.3), and placed on ice. Cells were scraped off, pelleted for 5 min at 200 rpm and re-suspended in a minimal volume of Krebs buffer. Aliquots were used to determine protein concentration (Biorad Assay) and phopholipase activity. To measure PLA2 activity 10-12 μg of cell protein was incubated with or without thrombin for 10 min on ice, ^14C-AA-labeled phospholipid substrate (7 μM. 40-60 mCi/mmol) was added, and the mixture was transferred to 37° for 20 min. The reaction was stopped by adding cold cliloroform/methanol (1:2 v/v). Lipid extraction followed by thin-layer chromatography (Negre-Aminou et al., J Neurochem 67:2599-2608 (1996)) isolated the reaction product (identified by co-migration with AA standard), which was then scraped off the plates and analyzed in a scintillation spectrometer (Beckman). In some experiments, especially those involving ^14C-AA-phosphatidylinositol as substrate, the diacylglycerol-containing band (identified by co-migration of standard) also was scraped and counted in order to measure phospholipase C (PLC) activity.

Turning to `O[C@H](CS)[C@H](O)CS` (racemic) [DTT, dithiothreitol], in the data set with cPLA2, the “effect of reducing agent on measured PLA2 activity” value is “did not significantly inhibit the measured PLA2 activity”. For the same molecule, the “net activity (pmol/min/mg protein), 50 nM DTT” value with growth cone PLA2 (Table 3b, GCPs, substrate PI, thrombin 100 nM or control) worked out at 66.0 ± 4.7 pmol/min/mg protein.

Turning to `CCCCC/C=C\C[C@H](O)/C=C/C=C\C/C=C\CCCC(=O)O` [12(S)-HETE, 12(S)-hydroxyeicosatetraenoic acid], the “concentration at peak of MARCKS and GAP43 phosphorylation (biphasic)” value with protein kinase C (PKC) is given as “about 10^−10 M”. For the same molecule, the “growth cone collapse, agent alone” value in [1] is “mimics the effects of thrombin and TRAP; also recorded: does indeed cause growth cone collapse”. For the same molecule, the “effect on AT-2 pseudopod length” value in the data set with AT-2 cells (10^−11M) is recorded as “seems to increase pseudopod length”. Also, the “pseudopod retraction response of AT-2 cells” value in the data set with AT-2 cells is reported as “retraction was not observed”. For the same molecule, on 12(S)-HETE receptor, the Kd is 1 nM and the “time required for saturation” value is 90 to 120 min. Further, in the data set with MAT-Lu cells [2] (10^−10M by medium replacement), the “time until pseudopod shortening nearly complete for most cells” value is listed as “about 15 min”. Besides, the “time at which pseudopod lengths reach a minimum” value in the data set on MAT-Lu cells [2] (10^−10 M by medium replacement, 73 pseudopods) is listed as “about 17 min”. The “length reduction for the median pseudopod length versus control” value in the data set on MAT-Lu cells [2] (at 10^−11 and 10^−10 M, 15 min, p<0.0001) is greater than 45%. Besides, the “time until pseudopod absorbed completely into the cell” value in the data set on MAT-Lu cells [2] (local application, 10^−10M) was “about 15 min”. Moreover, the “onset of pseudopod detachment and shortening” value in the data set on MAT-Lu cells [2] (local application, 10^−10M, about 10 μm from cell process) is no more than 1 min. The “concentration at peak of pseudopod retraction” value in data set [3] (15-min incubation) is recorded as 10^−11 to 10^−10 M.

For `CCCCC/C=C\C/C=C\C/C=C\C/C=C\CCCC(=O)O` [AA, arachidonic acid], the “pseudopod retraction response of AT-2 cells” value with AT-2 cells is given as “almost completely insensitive”. In addition, the “concentration at peak of biphasic PKC γ response” value on PKC γ is 12 µM. Besides, the “effect of agent alone on pseudopod length” value in the data set on MAT-Lu cells [2] (typically 15 min exposure) is “caused significant but reversible reduction of pseudopod length; also recorded: mimics the thrombin-induced length reduction; also recorded: causes statistically significant pseudopod shortening”. The “pseudopod response to AA” value in [3] (all three high-motility cell types) is recorded as “responded to AA in the manner described for MAT-Lu cells”.

For the molecule “IGF-1: insulin-like growth factor-1, positive chemotactic factor”, the “Mat-Lu cells crossing filter in % of control +/− SEM” value in the data set on MAT-Lu cells [4] (IGF-1 (0.75 nM), 4 hr, thrombin 200 nM, CDC 126 nM) is reported as 184 +/− 15 % of control. In addition, in the data set with MAT-Lu cells [4] (IGF-1 in the lower chamber, 4 hr), the “enhancement of MAT-Lu migration across laminin-coated membrane” value was “about 1.8 fold”. Further, in the data set with MAT-Lu cells [4] (four-hour assays), the “increase in MAT-Lu migration” value is listed as “about 80%”. The “stimulation of DG release in GCPs” value in the data set on growth cone PLC is reported as “approximately two-fold”. In addition, the “stimulation of AA release from PI” value in the data set with growth cone PLA2 (IGF-1, low nanomolar range, 10 μM free Ca^2+) is “about 1.7 fold”. The “net activity (pmol/min/mg protein)” value with growth cone PLA2 (Table 3c, GCPs, substrate PI, BDNF 100, IGF-1 0.75, insulin 1, thrombin 200 nM, control 159 ± 6.2) came to 177 ± 14.5 pmol/min/mg protein.

A word on the Kd: it is the equilibrium constant for the complex coming apart.
